PMC5564600 (Oncotarget, 2017)

Legend:
Assay in all cases: biochemical
Format in all cases: binding
panel of 442 kinases [1] = molecular target: T1, panel of 442 kinases (Homo sapiens, UniProt P09769); settings: FGR; for remaining activity at 1 µM: read-out: % of control at 1 µM
T1 construct: purchased Ambit Biosciences (scanMAXX KINOMEscan)

panel of 442 kinases [2] = molecular target: T2, panel of 442 kinases (Homo sapiens, UniProt Q96PY6); settings: kinase NEK1; for remaining activity at 1 µM: read-out: % of control at 1 µM
T2 construct: purchased Ambit Biosciences (scanMAXX KINOMEscan)
T2 sequence (Q96PY6 1-1258): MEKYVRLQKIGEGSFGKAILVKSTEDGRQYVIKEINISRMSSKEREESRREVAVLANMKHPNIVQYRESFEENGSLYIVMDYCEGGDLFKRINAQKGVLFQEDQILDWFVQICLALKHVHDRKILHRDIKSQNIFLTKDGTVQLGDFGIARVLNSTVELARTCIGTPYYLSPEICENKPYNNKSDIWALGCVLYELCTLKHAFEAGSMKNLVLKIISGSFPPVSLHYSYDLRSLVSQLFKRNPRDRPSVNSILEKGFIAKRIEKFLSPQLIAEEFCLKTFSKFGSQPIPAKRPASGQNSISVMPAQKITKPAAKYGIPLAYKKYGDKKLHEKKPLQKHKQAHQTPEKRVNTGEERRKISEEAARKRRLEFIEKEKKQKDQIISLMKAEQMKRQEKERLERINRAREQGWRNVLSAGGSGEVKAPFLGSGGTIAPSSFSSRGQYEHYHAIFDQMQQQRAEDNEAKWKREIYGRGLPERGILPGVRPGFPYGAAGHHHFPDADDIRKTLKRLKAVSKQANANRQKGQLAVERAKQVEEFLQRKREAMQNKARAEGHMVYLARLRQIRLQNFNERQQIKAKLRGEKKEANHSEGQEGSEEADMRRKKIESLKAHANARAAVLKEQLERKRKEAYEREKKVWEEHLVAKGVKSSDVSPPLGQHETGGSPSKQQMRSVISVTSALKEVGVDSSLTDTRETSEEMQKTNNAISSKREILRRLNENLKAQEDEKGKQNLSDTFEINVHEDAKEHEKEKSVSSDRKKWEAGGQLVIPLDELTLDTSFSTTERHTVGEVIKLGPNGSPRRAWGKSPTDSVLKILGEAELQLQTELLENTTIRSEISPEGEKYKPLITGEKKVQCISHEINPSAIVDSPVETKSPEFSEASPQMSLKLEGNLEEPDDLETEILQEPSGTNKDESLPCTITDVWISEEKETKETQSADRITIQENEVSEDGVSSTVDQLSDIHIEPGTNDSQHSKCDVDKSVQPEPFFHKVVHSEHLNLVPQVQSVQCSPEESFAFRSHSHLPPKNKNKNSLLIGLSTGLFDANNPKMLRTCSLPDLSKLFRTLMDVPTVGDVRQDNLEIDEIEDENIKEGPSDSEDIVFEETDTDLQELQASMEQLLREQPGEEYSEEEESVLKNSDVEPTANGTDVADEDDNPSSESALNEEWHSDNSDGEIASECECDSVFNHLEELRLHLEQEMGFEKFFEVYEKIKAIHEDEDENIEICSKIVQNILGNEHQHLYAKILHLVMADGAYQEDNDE

panel of 442 kinases [3] = molecular target: T3, panel of 442 kinases (Homo sapiens, UniProt Q86UE8); settings: kinase TLK2; for remaining activity at 1 µM: read-out: TLK2 (% of control at 1 µM)
T3 construct: purchased Ambit Biosciences (scanMAXX KINOMEscan)
T3 sequence (Q86UE8 whole entry): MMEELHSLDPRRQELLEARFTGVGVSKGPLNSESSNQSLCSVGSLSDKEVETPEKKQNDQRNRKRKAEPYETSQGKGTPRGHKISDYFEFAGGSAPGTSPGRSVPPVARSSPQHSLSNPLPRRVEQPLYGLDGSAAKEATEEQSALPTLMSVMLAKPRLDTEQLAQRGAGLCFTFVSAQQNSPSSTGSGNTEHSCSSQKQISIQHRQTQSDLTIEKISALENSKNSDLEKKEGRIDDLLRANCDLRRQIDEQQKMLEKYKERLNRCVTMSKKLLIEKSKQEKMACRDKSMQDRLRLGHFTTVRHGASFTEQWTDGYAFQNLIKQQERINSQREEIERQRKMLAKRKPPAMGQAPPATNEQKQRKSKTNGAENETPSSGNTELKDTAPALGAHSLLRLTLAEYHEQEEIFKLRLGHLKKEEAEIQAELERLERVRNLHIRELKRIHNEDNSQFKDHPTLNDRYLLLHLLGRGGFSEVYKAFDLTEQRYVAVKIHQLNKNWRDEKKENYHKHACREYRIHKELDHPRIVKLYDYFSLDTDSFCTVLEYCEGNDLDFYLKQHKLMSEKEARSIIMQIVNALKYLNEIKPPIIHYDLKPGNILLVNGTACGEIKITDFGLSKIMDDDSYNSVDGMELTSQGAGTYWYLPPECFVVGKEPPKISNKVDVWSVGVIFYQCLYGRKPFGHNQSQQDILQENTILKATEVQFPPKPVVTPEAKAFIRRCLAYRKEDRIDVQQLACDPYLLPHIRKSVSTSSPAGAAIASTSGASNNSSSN

panel of 442 kinases [4] = molecular target: T4, panel of 442 kinases (Homo sapiens, UniProt P78362); settings: kinase SRPK2; for remaining activity at 1 µM: read-out: SRPK2 (% of control at 1 µM)
T4 construct: purchased Ambit Biosciences (scanMAXX KINOMEscan)
T4 sequence (P78362 whole entry): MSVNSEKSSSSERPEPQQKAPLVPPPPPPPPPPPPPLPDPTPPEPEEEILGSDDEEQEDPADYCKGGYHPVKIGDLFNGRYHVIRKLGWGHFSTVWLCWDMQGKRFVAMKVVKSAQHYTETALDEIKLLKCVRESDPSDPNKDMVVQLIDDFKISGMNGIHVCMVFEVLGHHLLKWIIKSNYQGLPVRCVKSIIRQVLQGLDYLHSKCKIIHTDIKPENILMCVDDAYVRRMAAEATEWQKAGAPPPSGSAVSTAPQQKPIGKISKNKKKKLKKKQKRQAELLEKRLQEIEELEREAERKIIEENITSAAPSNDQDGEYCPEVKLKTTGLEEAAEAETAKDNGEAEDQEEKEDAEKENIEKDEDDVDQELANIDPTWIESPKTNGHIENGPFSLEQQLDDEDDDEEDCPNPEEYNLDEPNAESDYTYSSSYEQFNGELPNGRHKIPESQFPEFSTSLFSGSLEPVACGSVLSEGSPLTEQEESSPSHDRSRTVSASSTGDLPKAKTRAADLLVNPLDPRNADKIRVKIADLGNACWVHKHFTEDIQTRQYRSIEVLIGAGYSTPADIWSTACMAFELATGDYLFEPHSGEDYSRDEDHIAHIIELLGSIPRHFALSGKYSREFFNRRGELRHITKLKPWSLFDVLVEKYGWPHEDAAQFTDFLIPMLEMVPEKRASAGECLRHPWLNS

panel of 442 kinases [5] = molecular target: T5, panel of 442 kinases (Homo sapiens, UniProt P29320); settings: EPHA3; for remaining activity at 1 µM: read-out: % of control at 1 µM
T5 construct: purchased Ambit Biosciences (scanMAXX KINOMEscan)
T5 sequence (P29320 21-983): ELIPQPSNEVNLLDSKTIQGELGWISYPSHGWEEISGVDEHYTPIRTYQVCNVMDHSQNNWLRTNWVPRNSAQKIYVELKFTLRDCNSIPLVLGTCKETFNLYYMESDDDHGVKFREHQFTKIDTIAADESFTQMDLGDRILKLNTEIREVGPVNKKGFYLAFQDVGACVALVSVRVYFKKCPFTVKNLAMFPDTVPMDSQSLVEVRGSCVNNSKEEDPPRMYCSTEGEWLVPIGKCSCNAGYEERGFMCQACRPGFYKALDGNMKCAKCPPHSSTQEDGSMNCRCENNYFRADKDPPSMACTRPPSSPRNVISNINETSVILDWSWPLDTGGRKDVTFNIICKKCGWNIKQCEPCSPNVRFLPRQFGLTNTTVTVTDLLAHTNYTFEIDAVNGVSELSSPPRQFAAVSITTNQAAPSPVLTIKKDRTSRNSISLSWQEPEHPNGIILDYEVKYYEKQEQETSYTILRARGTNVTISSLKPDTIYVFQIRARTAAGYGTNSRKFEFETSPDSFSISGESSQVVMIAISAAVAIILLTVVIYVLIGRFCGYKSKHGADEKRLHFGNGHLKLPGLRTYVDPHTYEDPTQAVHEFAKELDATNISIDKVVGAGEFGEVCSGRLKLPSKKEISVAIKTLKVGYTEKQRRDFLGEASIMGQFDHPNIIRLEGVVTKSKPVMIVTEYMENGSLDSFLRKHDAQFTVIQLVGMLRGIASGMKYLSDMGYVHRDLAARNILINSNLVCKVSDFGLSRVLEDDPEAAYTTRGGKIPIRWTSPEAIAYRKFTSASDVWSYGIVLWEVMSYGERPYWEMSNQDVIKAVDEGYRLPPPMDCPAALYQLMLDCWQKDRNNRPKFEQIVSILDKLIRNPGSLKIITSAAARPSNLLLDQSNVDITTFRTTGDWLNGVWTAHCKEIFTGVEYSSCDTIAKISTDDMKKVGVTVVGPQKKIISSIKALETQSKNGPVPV

[6] = 10 µM, read-out: % of control at 10 µM

T1 sequence (P09769 whole entry): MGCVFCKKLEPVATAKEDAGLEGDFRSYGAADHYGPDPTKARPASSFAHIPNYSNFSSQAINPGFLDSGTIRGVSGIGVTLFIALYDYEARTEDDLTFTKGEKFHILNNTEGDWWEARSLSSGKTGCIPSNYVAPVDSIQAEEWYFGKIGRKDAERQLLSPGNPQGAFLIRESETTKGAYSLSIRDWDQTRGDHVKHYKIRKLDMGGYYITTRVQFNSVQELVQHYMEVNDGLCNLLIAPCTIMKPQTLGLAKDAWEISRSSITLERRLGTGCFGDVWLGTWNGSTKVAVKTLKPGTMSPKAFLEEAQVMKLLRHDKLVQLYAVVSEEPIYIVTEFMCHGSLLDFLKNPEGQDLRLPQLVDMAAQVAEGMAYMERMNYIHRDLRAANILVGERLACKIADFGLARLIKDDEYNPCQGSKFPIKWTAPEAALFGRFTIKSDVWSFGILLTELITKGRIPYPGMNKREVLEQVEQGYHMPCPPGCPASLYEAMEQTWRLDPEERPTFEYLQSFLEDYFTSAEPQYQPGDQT

SMILES: Nc1cc(C(F)(F)F)c(-c2cc(N3CCOCC3)nc(N3CCOCC3)n2)cn1 [Buparlisib]
- remaining activity at 1 µM (panel of 442 kinases [1]): 100%
- remaining activity at 10 µM (panel of 442 kinases [1]; [6]): 100%
- remaining activity at 1 µM (panel of 442 kinases [2]): 100%
- remaining activity at 10 µM (panel of 442 kinases [2]; [6]): 100%
- remaining activity at 1 µM (panel of 442 kinases [3]): 100%
- remaining activity at 10 µM (panel of 442 kinases [3]; 10 µM, read-out: TLK2 (% of control at 10 µM)): 100%
- remaining activity at 1 µM (panel of 442 kinases [4]): 78%
- remaining activity at 10 µM (panel of 442 kinases [4]; 10 µM, read-out: SRPK2 (% of control at 10 µM)): 100%
- remaining activity at 1 µM (panel of 442 kinases [5]): 96%
- remaining activity at 10 µM (panel of 442 kinases [5]; [6]): 100%

SMILES: Cn1c(=O)n(-c2ccc(C(C)(C)C#N)cc2)c2c3cc(-c4cnc5ccccc5c4)ccc3ncc21 [Dactolisib, 2-methyl-2-[4-(3-methyl-2-oxo-8-quinolin-3-yl-2,3-dihydroimidazo[4,5-c]quinolin-1-yl)-phenyl] propionitrile]
- remaining activity at 1 µM (panel of 442 kinases [1]): 81%
- remaining activity at 1 µM (panel of 442 kinases [2]): 98%
- remaining activity at 1 µM (panel of 442 kinases [3]): 93%
- remaining activity at 1 µM (panel of 442 kinases [4]): 100%
- remaining activity at 1 µM (panel of 442 kinases [5]): 63%

SMILES: COc1ncc(-c2ccc3nccc(-c4ccnnc4)c3c2)cc1NS(=O)(=O)c1ccc(F)cc1F [Omipalisib]
- remaining activity at 1 µM (panel of 442 kinases [1]): 84%
- remaining activity at 1 µM (panel of 442 kinases [2]): 87%
- remaining activity at 1 µM (panel of 442 kinases [3]): 100%
- remaining activity at 1 µM (panel of 442 kinases [4]): 100%
- remaining activity at 1 µM (panel of 442 kinases [5]): 100%

SMILES: FC(F)c1nc2ccccc2n1-c1nc(N2CCOCC2)nc(N2CCOCC2)n1 [ZSTK474, 2-(difluoromethyl)-1-[4,6-di(4-morpholinyl)-1,3,5-triazin-2-yl]-1H-benzimidazole]
- remaining activity at 1 µM (panel of 442 kinases [1]): 87%
- remaining activity at 1 µM (panel of 442 kinases [2]): 100%
- remaining activity at 1 µM (panel of 442 kinases [3]): 100%
- remaining activity at 1 µM (panel of 442 kinases [4]): 100%
- remaining activity at 1 µM (panel of 442 kinases [5]): 93%
